Common to all, as to type: functional
The nature of experiment [1]: intracellular Trypanosoma cruzi inhibitors in host cells – cell-based, plate reader, cherry-pick samples, set 3, dose response (AID 651818).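 Note: compounds incubated with infected cells for about four days.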
Another experiment deals with Genome polyprotein (dengue virus type 2, UniProt P29990). Nature of the experiment: flavivirus cap methylation enzyme inhibition – biochemical, confirmation dose response, primary screen (AID 588689).
Sequence of Genome polyprotein (P29990 2492-3391 limits assumed): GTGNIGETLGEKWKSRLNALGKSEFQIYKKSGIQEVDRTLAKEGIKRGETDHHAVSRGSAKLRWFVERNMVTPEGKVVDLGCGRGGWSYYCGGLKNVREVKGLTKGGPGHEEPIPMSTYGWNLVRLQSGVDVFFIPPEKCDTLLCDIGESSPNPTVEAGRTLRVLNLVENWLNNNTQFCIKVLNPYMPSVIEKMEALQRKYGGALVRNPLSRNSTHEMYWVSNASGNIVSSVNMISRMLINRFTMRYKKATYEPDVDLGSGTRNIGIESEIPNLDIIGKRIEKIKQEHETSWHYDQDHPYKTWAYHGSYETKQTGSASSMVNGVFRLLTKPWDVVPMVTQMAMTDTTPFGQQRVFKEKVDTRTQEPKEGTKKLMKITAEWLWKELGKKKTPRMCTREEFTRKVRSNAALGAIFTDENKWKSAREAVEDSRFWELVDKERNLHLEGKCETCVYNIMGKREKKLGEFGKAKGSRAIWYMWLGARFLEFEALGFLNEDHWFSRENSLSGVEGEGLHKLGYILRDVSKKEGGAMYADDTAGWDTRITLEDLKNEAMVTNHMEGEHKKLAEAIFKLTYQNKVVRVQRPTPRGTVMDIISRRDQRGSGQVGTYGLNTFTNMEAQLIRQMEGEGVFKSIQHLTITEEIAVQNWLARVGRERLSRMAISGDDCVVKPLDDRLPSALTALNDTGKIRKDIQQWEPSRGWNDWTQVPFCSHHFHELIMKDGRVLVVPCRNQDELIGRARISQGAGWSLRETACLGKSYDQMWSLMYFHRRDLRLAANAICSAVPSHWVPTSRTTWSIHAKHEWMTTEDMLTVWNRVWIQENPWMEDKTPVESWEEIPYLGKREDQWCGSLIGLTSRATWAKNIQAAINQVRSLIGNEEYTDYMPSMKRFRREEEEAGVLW
For another experiment, the system named is Vero. Nature of the experiment: viability of Vero cells under compound – cytotoxicity control for flavivirus capping enzyme inhibitors (AID 588742). As to conditions: Chlorocebus sabaeus.
Experiment [2] addresses T1, Sentrin-specific protease 7 (Homo sapiens, UniProt Q9BQF6).
T1 sequence (Q9BQF6 whole entry): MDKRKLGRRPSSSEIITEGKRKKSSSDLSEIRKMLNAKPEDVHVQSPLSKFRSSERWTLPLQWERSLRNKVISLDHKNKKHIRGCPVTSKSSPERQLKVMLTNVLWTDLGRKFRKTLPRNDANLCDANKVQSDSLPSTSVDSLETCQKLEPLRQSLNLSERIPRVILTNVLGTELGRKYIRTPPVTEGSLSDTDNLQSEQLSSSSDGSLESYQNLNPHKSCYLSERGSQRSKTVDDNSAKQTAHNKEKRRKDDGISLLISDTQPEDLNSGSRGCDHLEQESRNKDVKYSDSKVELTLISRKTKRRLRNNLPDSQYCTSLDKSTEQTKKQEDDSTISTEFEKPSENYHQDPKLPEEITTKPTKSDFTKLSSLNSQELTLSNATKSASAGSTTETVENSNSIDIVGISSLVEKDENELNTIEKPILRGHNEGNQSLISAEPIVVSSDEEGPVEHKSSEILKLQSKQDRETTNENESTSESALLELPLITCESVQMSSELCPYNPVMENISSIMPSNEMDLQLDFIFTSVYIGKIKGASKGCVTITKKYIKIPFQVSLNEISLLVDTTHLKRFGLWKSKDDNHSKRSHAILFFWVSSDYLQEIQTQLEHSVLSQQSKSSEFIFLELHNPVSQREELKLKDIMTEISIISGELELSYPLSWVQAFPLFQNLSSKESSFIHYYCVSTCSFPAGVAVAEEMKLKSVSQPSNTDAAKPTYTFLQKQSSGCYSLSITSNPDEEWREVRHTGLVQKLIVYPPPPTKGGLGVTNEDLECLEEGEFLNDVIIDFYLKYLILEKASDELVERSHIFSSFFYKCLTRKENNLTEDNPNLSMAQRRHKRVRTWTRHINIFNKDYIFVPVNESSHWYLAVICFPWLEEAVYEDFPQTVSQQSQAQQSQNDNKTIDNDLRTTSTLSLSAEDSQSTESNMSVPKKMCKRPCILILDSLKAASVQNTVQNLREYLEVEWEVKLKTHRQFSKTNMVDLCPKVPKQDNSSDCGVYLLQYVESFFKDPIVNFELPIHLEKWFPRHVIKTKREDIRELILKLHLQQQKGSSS

The target of experiment [3] is T2, Sentrin-specific protease 8 (Homo sapiens, UniProt Q96LD8).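 Note: luminescence read-out of SENP8 inhibition, dose-response confirmation following an ultra-high-throughput screen.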
T2 sequence (Q96LD8 whole entry): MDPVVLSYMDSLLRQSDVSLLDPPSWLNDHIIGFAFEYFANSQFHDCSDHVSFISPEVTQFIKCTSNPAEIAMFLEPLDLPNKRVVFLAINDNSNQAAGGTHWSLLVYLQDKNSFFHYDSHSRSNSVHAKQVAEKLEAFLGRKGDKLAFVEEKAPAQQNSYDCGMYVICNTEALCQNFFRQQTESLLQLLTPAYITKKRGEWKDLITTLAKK

For experiment [4], the target named is T3, Sentrin-specific protease 6 (Homo sapiens, UniProt Q9GZR1).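 Note: Luminescence-based dose-response confirmatory assay of SENP6 inhibition, following up an ultra-high-throughput screen.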
T3 sequence (Q9GZR1 whole entry): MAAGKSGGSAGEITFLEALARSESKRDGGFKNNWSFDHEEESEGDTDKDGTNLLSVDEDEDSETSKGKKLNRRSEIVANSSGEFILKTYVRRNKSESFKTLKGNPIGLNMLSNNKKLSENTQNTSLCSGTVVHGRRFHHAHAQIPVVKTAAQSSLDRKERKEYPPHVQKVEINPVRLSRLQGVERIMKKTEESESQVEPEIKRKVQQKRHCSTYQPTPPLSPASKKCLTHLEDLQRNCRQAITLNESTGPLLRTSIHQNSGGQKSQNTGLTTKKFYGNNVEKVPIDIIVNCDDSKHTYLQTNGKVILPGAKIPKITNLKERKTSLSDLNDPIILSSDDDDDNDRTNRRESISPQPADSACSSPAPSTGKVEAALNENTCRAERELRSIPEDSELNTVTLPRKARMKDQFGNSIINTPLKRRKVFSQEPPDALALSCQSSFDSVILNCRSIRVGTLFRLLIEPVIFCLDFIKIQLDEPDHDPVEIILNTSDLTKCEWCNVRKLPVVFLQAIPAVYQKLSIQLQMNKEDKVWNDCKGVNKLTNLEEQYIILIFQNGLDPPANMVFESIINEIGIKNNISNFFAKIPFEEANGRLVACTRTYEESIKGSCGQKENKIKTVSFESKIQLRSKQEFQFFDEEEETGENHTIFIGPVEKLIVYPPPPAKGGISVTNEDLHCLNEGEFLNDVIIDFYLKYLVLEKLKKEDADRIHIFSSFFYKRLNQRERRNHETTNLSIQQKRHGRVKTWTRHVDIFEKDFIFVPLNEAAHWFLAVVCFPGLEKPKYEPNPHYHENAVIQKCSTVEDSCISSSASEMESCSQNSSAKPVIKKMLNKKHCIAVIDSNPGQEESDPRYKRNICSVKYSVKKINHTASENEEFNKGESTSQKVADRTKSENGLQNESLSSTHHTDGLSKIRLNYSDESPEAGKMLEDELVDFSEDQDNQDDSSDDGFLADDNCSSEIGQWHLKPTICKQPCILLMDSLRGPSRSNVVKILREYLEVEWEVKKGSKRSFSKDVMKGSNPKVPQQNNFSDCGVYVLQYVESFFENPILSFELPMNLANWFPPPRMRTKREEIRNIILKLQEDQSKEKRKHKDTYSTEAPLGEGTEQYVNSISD

Another experiment deals with T4, Caspase-3 (Homo sapiens, UniProt P42574).
T4 sequence (P42574 whole entry): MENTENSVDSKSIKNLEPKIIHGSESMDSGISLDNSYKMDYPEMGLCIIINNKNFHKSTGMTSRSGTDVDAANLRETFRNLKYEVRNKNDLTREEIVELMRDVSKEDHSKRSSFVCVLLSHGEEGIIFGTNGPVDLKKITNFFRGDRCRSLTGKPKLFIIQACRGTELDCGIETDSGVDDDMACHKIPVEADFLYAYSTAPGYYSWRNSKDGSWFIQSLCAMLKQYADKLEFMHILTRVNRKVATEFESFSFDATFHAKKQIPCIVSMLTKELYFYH

In experiment [5] the target is T5, Heat shock factor protein 1 (Mus musculus, UniProt P38532).
T5 sequence (P38532 whole entry): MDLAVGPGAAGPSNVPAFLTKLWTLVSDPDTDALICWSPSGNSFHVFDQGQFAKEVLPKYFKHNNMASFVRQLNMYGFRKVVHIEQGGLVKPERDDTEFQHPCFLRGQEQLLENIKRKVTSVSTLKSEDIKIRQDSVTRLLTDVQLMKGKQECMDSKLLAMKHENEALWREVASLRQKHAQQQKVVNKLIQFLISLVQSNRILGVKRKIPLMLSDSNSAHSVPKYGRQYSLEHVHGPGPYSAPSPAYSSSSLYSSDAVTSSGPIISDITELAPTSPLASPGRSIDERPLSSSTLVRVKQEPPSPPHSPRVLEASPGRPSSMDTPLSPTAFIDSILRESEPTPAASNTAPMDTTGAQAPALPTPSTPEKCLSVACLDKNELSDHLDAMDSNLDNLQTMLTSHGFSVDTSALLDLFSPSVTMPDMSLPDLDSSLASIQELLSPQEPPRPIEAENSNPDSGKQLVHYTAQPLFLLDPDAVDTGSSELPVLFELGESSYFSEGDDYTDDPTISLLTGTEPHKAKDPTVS
In words: decrease of HSF1-responsive luciferase luminescence – cell-based, NIH3T3, dose retest, confirmation (AID 2382).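 Note: NIH3T3 fibroblasts with HSF1-driven luciferase reporter stressed by proteasome inhibitor MG132; luminescence from HSF1-driven luciferase expression after 8 hours of MG132 stress.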

The target of experiment [6] is T6, Corticotropin-releasing factor receptor 2/Corticotropin-releasing factor-binding protein (Homo sapiens, UniProt P24387+Q13324).
T6 sequence (Q13324 whole entry): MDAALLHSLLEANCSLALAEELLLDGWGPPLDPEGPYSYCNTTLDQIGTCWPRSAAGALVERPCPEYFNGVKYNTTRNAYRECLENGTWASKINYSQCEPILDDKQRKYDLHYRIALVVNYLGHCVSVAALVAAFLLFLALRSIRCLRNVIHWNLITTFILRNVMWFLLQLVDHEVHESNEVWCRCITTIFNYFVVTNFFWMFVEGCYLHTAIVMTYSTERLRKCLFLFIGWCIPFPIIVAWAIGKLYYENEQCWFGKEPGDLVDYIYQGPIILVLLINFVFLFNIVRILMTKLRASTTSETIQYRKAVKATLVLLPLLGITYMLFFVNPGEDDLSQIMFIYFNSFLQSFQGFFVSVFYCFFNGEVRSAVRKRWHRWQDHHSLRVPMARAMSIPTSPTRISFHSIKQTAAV
T6 sequence (P24387 whole entry): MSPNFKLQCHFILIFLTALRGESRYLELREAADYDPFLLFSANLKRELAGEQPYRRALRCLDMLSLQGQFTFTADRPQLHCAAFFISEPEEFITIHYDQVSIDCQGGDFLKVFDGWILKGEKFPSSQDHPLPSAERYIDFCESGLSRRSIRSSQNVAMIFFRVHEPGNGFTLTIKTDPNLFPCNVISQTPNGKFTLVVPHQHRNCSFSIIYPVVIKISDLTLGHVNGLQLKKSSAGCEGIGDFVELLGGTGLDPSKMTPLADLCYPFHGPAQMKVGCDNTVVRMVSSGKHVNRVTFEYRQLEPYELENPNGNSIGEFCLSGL
Nature of the experiment: Dose Response confirmation of uHTS hits for small molecule antagonists of the CRF-binding protein and CRF-R2 receptor complex. As to conditions: read-out: IC50_Mean.

The subject of another experiment is H4. In words: Luminescence Cell-Based Dose Response HTS to Identify Activators of 5'UTR Stem-Loop Driven Prion Protein mRNA Translation in H4 Neuroglioblastoma Cells. [Related pubchem assays: 1829 (Project Summary), 1814 (Primary HTS)]. As to conditions: Homo sapiens.
The nature of experiment [7]: Luminescence Cell-Based Dose Response HTS to Identify Activators of Luciferase Translation or Activity in H4 […] Cells. [Related pubchem assays: 1829 (Project Summary), 1814 (Primary HTS)].
Experiment [8] concerns the target T6, Corticotropin-releasing factor receptor 2/Corticotropin-releasing factor-binding protein. Nature of the experiment: activators of CRF receptor 2 with binding protein – uHTS hits, confirmation (AID 602473). As to conditions: read-out: EC50_Mean.
For the next experiment, the target named is T7, Protein skinhead-1 (Caenorhabditis elegans, UniProt P34707).
T7 sequence (P34707 whole entry): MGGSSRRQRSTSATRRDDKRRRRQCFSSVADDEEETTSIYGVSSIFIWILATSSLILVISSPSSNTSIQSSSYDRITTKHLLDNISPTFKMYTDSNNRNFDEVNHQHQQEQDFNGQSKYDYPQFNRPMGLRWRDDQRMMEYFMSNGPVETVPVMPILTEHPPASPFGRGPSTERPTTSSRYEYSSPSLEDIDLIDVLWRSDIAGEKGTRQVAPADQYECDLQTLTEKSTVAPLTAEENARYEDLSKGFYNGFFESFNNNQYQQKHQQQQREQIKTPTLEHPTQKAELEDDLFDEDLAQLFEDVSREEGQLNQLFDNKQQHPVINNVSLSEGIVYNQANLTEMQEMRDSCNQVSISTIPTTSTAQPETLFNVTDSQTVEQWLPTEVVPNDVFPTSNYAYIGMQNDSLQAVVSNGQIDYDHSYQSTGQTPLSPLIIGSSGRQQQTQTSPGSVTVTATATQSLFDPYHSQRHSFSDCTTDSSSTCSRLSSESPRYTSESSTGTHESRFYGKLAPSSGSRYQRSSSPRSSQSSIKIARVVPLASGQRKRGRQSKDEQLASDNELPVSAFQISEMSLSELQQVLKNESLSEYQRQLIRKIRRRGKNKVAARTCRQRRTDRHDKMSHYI

The source made the active and inactive calls.

For orientation: AC50 means the midpoint of the concentration-response curve, whichever way the signal moves. A word on the CC50: it is the concentration giving 50% cytotoxicity.

For `C[C@@H]1CN([C@H](C)CO)C(=O)Cc2cc(NC(=O)Nc3ccc(C(F)(F)F)cc3)ccc2O[C@@H]1CN(C)Cc1ccc(Cl)c(Cl)c1`, the AC50 in experiment [1] was 6.82 µM (active).
In the case of `N#CC(=C1C=C(Br)C(=NO)C=C1Cl)c1ccc(Cl)cc1`, the IC50 at Genome polyprotein was 62.4 µM (active). The cytotoxic concentration (CC50) in the experiment on Vero is > 40 µM (active).
Regarding `C[C@@H]1CN([C@H](C)CO)C(=O)c2cccc(NC(=O)Nc3ccc(C(F)(F)F)cc3)c2O[C@H]1CN(C)Cc1ccc2c(c1)OCO2`, the AC50 in [1] is 1.82 µM (active).
For `COc1ccc(C(=O)Nc2cccc(C(=O)O)c2)cc1S(=O)(=O)N1CCCC1`, the IC50 was 6.06 µM (active) in experiment [2], 26.6 µM (active) in [3], 22.1 µM (active) in experiment [4] and 46.9 µM (active) on Caspase-3.
Take `Cc1cc(O)c(C2=Nc3ccccc3SC(c3ccc(Cl)cc3)C2)c(=O)o1` (stereo not drawn): the EC50 is 21 µM (active) in experiment [5], 107 µM (inconclusive) in the experiment on H4, 38.4 µM (active) in experiment [7] and > 53 µM (inactive) in experiment [8]. In experiment [6], the IC50 was > 47.1 µM (inactive).
For the molecule `Cc1cccc(C(=O)N2c3ccccc3C(=O)OC2c2ccc3c(c2)OCO3)c1` (stereo not drawn), the IC50 in experiment [6] was < 0.368 µM (active). Further, the EC50 in experiment [8] was > 53 µM (inactive).
As for `COC(=O)C1=C(C)N=C(C)/C(=C(/O)OC)C1/C=C/c1ccccc1` (stereo not drawn), the IC50 in experiment [6] was > 47.1 µM (inactive). For the same molecule, the EC50 in experiment [8] is > 53 µM (inactive).
With `Cc1ccc(C(=O)Nc2ccccc2C(=O)NC2CCCCC2)cc1S(=O)(=O)N1CCOCC1`, the IC50 in experiment [6] is > 47.1 µM (inactive). In [8], the EC50 is > 53 µM (inactive).
As for `Cc1ccc(C(=O)Nc2cccc3cccnc23)cc1C`, the IC50 is 3.98 µM (active) in experiment [2], 18.8 µM (active) in experiment [3], 14.5 µM (active) in experiment [4] and 15.6 µM (active) at Caspase-3.
Turning to `O=[N+]([O-])c1ccc(CSc2nc3ccccc3o2)cc1`, the IC50 in [2] is 7.69 µM (active); in experiment [3] it was 16.2 µM (active); on Protein skinhead-1 it was > 100 µM (inactive); in experiment [4], 23.3 µM (active); on Caspase-3 it was 25.6 µM (active).
